The text below walks through data of ChEMBL document CHEMBL4017477, “Synthesis and evaluation of 4,6-disubstituted pyrimidines as CNS penetrant pan-muscarinic antagonists with a novel chemotype” (Bioorg Med Chem Lett, 2017).

Some results are limits rather than exact numbers.

Data set [1] addresses T1, Muscarinic acetylcholine receptor M4 (Homo sapiens, UniProt P08173).
T1 sequence (P08173 whole entry): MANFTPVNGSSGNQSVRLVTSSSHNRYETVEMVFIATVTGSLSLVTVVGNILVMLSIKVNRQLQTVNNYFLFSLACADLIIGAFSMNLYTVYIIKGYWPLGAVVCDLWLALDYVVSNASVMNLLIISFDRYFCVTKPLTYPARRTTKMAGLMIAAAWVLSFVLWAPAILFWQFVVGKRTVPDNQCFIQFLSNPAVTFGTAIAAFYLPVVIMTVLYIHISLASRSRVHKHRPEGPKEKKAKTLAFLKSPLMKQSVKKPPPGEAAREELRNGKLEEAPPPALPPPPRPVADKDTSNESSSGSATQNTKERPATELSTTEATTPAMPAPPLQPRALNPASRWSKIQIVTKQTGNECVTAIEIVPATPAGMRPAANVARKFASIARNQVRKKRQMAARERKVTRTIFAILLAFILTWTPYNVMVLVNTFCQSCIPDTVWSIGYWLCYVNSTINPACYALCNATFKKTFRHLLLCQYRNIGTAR
Description: Antagonist activity at recombinant human M4 receptor expressed in CHO cells co-expressing Gqi5 by calcium mobilization assay. It is filed as functional, cell-based. A general note: Calcium assays in cells follow changes in intracellular calcium, usually with a dye or a luminescent sensor.

In data set [2] the target is T1, Muscarinic acetylcholine receptor M4. Description: Displacement of [3H]-NMS from recombinant human M4 receptor expressed in CHO cell membranes. For orientation: In a radioligand displacement assay an active substance lowers the binding of a labelled ligand.
In data set [3] the target is T2, Muscarinic acetylcholine receptor M4 (Homo sapiens) (UniProt P08173).
T2 sequence (whole entry): T1 sequence (P08173 whole entry)
Description: Antagonist activity at recombinant human M4 receptor expressed in CHO cells co-expressing Gqi5 by calcium mobilization assay relative to acetylcholine. It is filed as functional, cell-based.

Data set [4] addresses T3, Muscarinic acetylcholine receptor M3 (Homo sapiens, UniProt P20309). Description: Antagonist activity at recombinant human M3 receptor expressed in CHO cells co-expressing Gqi5 by calcium mobilization assay relative to acetylcholine. It is filed as functional, cell-based.
Target sequence in this assay (P20309 whole entry, looked up): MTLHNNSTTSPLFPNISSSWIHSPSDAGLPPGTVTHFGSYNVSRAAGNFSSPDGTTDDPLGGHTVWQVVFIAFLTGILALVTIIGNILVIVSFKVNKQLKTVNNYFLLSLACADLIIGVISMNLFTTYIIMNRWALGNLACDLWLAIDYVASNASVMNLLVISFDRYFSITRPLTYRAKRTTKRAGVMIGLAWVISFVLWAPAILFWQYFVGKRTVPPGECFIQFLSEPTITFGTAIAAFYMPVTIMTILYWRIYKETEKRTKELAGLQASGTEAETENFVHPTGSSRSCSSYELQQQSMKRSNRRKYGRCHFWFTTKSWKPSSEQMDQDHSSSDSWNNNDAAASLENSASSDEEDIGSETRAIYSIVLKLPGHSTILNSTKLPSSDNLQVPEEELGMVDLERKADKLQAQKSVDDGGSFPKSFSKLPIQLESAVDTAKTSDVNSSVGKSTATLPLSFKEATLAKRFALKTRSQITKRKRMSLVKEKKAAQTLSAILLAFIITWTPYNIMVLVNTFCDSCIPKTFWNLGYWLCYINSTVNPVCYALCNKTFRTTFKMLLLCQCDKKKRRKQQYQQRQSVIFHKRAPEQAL
Data set [5] has as its target T4, Muscarinic acetylcholine receptor M1 (Homo sapiens, UniProt P11229).
T4 sequence (P11229 whole entry): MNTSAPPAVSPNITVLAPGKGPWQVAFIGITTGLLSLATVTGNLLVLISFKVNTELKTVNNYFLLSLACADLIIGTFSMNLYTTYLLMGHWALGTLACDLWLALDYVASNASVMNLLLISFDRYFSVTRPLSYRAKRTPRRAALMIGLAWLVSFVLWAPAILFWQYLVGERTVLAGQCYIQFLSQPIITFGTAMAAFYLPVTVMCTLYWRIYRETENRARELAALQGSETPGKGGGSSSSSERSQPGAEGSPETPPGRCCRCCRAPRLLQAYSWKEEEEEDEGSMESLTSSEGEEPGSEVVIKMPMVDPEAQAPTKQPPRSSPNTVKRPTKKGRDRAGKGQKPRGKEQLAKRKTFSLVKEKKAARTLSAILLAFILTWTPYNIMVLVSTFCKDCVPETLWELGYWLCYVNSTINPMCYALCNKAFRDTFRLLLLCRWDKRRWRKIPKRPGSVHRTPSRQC
Description: Antagonist activity at recombinant human M1 receptor expressed in CHO cells co-expressing Gqi5 by calcium mobilization assay. Type of data set: functional, cell-based.

For data set [6], the target named is T5, Muscarinic acetylcholine receptor M2 (Homo sapiens) (UniProt P08172).
T5 sequence (whole entry): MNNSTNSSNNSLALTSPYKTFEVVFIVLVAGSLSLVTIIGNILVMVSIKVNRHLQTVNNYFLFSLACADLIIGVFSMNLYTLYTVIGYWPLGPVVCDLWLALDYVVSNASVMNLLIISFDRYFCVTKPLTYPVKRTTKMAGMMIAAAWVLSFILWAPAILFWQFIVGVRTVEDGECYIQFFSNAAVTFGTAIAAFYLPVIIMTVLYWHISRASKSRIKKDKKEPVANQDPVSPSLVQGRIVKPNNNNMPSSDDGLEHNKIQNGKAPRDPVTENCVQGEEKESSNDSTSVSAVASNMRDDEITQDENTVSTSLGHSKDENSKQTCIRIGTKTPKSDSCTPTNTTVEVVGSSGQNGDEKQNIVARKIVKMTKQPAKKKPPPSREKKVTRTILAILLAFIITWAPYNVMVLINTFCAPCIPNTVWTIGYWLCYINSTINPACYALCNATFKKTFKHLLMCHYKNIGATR
Description: Antagonist activity at recombinant human M2 receptor expressed in CHO cells co-expressing Gqi5 by calcium mobilization assay relative to acetylcholine. It is filed as functional, cell-based.

Data set [7] has as its target T6, Muscarinic acetylcholine receptor M5 (Homo sapiens, UniProt P08912).
T6 sequence (P08912 whole entry): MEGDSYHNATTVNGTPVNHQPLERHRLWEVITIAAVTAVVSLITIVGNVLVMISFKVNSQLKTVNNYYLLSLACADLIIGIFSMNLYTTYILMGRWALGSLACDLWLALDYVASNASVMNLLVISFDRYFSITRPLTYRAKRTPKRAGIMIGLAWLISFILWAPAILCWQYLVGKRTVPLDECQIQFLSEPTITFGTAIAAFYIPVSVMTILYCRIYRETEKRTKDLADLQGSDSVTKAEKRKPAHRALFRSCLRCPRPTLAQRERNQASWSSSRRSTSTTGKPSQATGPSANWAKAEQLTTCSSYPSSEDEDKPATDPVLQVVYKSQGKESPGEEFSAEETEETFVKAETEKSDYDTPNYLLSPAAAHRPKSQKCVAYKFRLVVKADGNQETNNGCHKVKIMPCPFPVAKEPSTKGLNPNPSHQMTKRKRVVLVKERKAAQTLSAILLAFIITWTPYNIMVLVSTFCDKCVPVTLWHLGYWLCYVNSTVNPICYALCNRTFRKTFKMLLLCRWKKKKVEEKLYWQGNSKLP
Description: Antagonist activity at recombinant human M5 receptor expressed in CHO cells co-expressing Gqi5 by calcium mobilization assay. Type of data set: functional, cell-based.

The target of data set [8] is T3, Muscarinic acetylcholine receptor M3. Description: Antagonist activity at recombinant human M3 receptor expressed in CHO cells co-expressing Gqi5 by calcium mobilization assay. It is filed as functional, cell-based.
Target sequence in this assay (P20309 whole entry): as the sequence (P20309 whole entry, looked up) above
The target in data set [9] is T7, Muscarinic acetylcholine receptor M5 (Homo sapiens) (UniProt P08912).
T7 sequence (whole entry): T6 sequence (P08912 whole entry)
Description: Antagonist activity at recombinant human M5 receptor expressed in CHO cells co-expressing Gqi5 by calcium mobilization assay relative to acetylcholine. It is filed as functional, cell-based.

Data set [10] addresses T8, Muscarinic acetylcholine receptor M1 (Homo sapiens) (UniProt P11229).
T8 sequence (whole entry): T4 sequence (P11229 whole entry)
Description: Antagonist activity at recombinant human M1 receptor expressed in CHO cells co-expressing Gqi5 by calcium mobilization assay relative to acetylcholine. Type of data set: functional, cell-based.

For data set [11], the target named is T9, Muscarinic acetylcholine receptor M2 (Homo sapiens, UniProt P08172).
T9 sequence (P08172 whole entry): T5 sequence (whole entry)
Description: Antagonist activity at recombinant human M2 receptor expressed in CHO cells co-expressing Gqi5 by calcium mobilization assay. Type of data set: functional, cell-based.

A short description of data set [12]: Clearance in rat at 0.2 mg/kg administered as iv cassette dose. As to conditions: in vivo.
Data set [13] is described as follows: Volume of distribution at steady state in rat at 0.2 mg/kg administered as iv cassette dose. Particulars: in vivo, read-out: Vdss.
Data set [14] can be described thus: Ratio of unbound brain to plasma concentration in rat. As to conditions: brain. It is filed as ADME.
Data set [15] is described as follows: Elimination half life in rat at 0.2 mg/kg administered as iv cassette dose. Particulars: in vivo, read-out: beta t1/2 (converted).
Data set [16] has as its target T10, Muscarinic acetylcholine receptor M4 (Rattus norvegicus) (UniProt P08485).
T10 sequence (whole entry): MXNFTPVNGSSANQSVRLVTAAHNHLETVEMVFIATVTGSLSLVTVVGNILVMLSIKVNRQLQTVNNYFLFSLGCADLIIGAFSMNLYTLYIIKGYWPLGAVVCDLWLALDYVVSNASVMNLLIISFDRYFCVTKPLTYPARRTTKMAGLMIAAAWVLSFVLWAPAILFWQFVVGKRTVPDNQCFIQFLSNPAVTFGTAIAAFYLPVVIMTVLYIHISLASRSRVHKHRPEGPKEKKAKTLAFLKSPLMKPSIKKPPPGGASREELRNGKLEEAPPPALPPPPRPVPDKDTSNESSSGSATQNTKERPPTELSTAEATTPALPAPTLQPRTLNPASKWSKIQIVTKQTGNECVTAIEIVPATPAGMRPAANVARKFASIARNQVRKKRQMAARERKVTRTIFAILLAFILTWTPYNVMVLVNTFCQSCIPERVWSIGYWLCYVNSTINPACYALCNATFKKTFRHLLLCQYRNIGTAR
Description: Antagonist activity at rat M4 receptor by calcium mobilization assay relative to acetylcholine. It is filed as functional.

For data set [17], the target named is T11, Muscarinic acetylcholine receptor M4 (Rattus norvegicus, UniProt P08485).
T11 sequence (P08485 whole entry): T10 sequence (whole entry)
Description: Antagonist activity at rat M4 receptor by calcium mobilization assay. Type of data set: functional.

Data set [18] in a line: Brain to plasma partition coefficient, Kp of the compound in rat. It is filed as ADME.

The Ki is a measure of affinity in units of concentration, obtained from inhibition or displacement. In general, clearance refers to the volume of plasma or blood freed of the substance per unit of time. Read a high clearance as a high capacity for elimination. By Kp is commonly meant tissue or fluid exposure divided by exposure in the circulation.

Take `O=C(C1CCN(c2cc(Oc3ccc(F)cc3F)ncn2)CC1)N1CCc2ccccc2C1`: the IC50 worked out at 100 nM in data set [1] (read-out: IC50); 250 nM in [5]; 510 nM in data set [7]; 380 nM in data set [8]; 330 nM in data set [11]. Further, in data set [2], the Ki is 10.3 nM. The Emin is 3% in data set [3]; < 6% in data set [4]; < 6% in data set [6]; < 6% in data set [9]; < 6% in [10].

On to `O=C(C1CCN(c2cc(Oc3ccc(F)cc3F)ncn2)CC1)N1Cc2ccccc2C1`, for which the clearance in data set [12] is 5.37 mL/min/kg. The IC50 was 340 nM in data set [1] (read-out: IC50); 324 nM in data set [1] (read-out: pIC50 (converted)); 540 nM in data set [5]; 1130 nM in [7]; 660 nM in data set [8]; 560 nM in data set [17] (read-out: IC50). For the same compound, the IC50 is 479 nM in [17] (read-out: pIC50 (converted)) and 520 nM in data set [11]. Moreover, the Vd in data set [13] was 1.35 L/kg. In addition, the Emin was 18.4% in data set [3]; 2.3% in [4]; 8.7% in data set [6]; 42.7% in [16]; 42.6% in data set [9]; 18.2% in data set [10]. In addition, in data set [14], the “K(p,uu,brain)” value is recorded as 0.87. In addition, in data set [15], the half-life was 3.7 h. The compound also displayed a Kp in data set [18] of 0.67.
